# Reference: patent publication US20130274284A1 (DR. REDDY'S LABORATORIES, INC., priority 2010, published 2013)
# Assay: storage stability with respect to degradation impurities (OXTP impurity)
# Type: physicochemical
# Conditions: for stability with respect to impurities such as OXTP impurity: stored in presence of desiccant
SMILES,stability with respect to impurities such as OXTP impurity,degradation during storage leading to impurities such as OXTP impurity (during the storage)
"CC(=O)Oc1cc2c(s1)CCN(C(C(=O)C1CC1)c1ccccc1F)C2.Cl (racemic) [prasugrel hydrochloride, 5-[(1RS)-2-cyclopropyl-1-(2-fluorophenyl)-2-oxoethyl]-4,5,6,7-tetrahydrothieno[3,2-c]pyridin-2-yl acetate hydrochloride]",greater stability,
"CC(=O)Oc1cc2c(s1)CCN(C(C(=O)C1CC1)c1ccccc1F)C2 (stereo not drawn) [prasugrel, 5-(2-cyclopropyl-1-(2-fluorophenyl)-2-oxoethyl)-4,5,6,7-tetrahydrothieno[3,2-c]pyridin-2-yl acetate]",greater stability,degrades during the storage
